Consider two molecules from patent US7795456B2, “Insecticidal N-substituted sulfoximines” (Dow AgroSciences LLC, priority 2004, dated 2010).

Data set [1] concerns yellow fever mosquito (Aedes aegypti) larvae. Kind of data set: whole plant or invertebrate. The data set is classed as in vivo. The following applies: 72 h, read-out: YFM 26: % control at 26 ppm against yellow fever mosquito in submerge tests.
Data set [2] relates to green peach aphid (Myzus persicae). Kind of data set: Insecticidal test for green peach aphid, foliar spray on cabbage seedlings. As to conditions: rundown assay, 3 days.
Data set [3] relates to beet armyworm (Spodoptera exigua). Briefly: Insecticidal test for beet armyworm in injection assays. The following applies: 1 h, read-out: BAW SYM: % showing intoxicated symptoms at 10 μg/larva against beet armyworm in injection tests.
Data set [4] concerns fruit fly (Drosophila melanogaster). The following applies: for FF SYM: % showing intoxicated symptoms at 25 μg/cm2 against fruit fly in dietary tests: 25 μg/cm2, 4 h; for FF 25: % mortality at 25 μg/cm2 against fruit fly in dietary tests: 25 μg/cm2, 48 h.
The test system of data set [5] is cotton aphid (Aphis gossypii). Kind of data set: Insecticidal test for cotton aphid, foliar spray on squash. The following applies: for pest or weed control at 50 ppm / pest or weed control at 200 ppm: Aphis gossypii, foliar, 72 h; for pest or weed control at 50 ppm: read-out: CA 50: % control at 50 ppm against cotton aphid in foliar spray tests; for pest or weed control at 200 ppm: read-out: CA 200: % control at 200 ppm against cotton aphid in foliar spray tests.

In data set [6] the test system is sweet potato whitefly (Bemisia tabaci). Kind of data set: Insecticidal test for sweet potato whitefly, foliar spray on cotton. The following applies: for pest or weed control at 200 ppm: Bemisia tabaci, in Gossypium hirsutum, foliar, read-out: SPW 200: % control at 200 ppm against sweet potato whitefly in foliar spray tests.
The test system of data set [7] is corn earworm (Helicoverpa zea). As to conditions: 50 μg/cm2, second-instar larvae, 5 days.
Data set [8] has as its system beet armyworm (Spodoptera exigua). As to conditions: 50 μg/cm2, second-instar larvae, 5 days.
Data set [9] relates to Colorado potato beetle (Leptinotarsa decemlineata). Kind of data set: Insecticidal test for Colorado potato beetle, foliar spray on tomato. The data set is classed as in vivo. The following applies: for CPB 50: % control at 50 ppm against Colorado potato beetle in foliar spray tests: 5 days, Corrected % Control. The method, then:
Insecticidal Test for Colorado Potato Beetle (Leptinotarsa decemlineata).
Tomato seedlings at the growth stage of three or four expanding leaves were used. […] Treated plants were held in the laboratory for approximately 3 h to allow drying before the upper portion (with two or three leaves) of a plant was cut and placed in a 10×2.5-cm petri dish containing approximately 10 mL of solidified 1% agar at the bottom. Five 2nd or 3rd instar larvae were placed on the treated plant tissue, and the petri dishes were covered and held in an incubator at 25° C. At 5 days following treatment, insecticidal activity was evaluated by counting the number of live larvae in each dish.

With `N#CN=[S@@]1(=O)CCCC1Cc1ccc(Cl)nc1` (stereo partly shown) [Compound 20], the pest or weed control at 26 ppm in [1] lay within 90 to 100%. The “% Control at ppm, against green peach aphid: 0.049” value in data set [2] (0.049 ppm) is “F (Less than 50)”. Also, in data set [2] (0.195 ppm), the “% Control at ppm, against green peach aphid: 0.195” value is reported as “F (Less than 50)”. In data set [2] (0.78 ppm), the “% Control at ppm, against green peach aphid: 0.78” value is “F (Less than 50)”. Moreover, the “% Control at ppm, against green peach aphid: 3.12” value in data set [2] (3.12 ppm) is recorded as “F (Less than 50)”. In addition, the “% Control at ppm, against green peach aphid: 12.5” value in [2] (12.5 ppm) is “A (90-100)”. Also, in data set [2] (50 ppm), the “% Control at ppm, against green peach aphid: 50” value is listed as “A (90-100)”. In addition, in data set [3], the pest or weed control at 0.01 mg was 80 to 89%. In data set [4], the “FF SYM: % showing intoxicated symptoms at 25 μg/cm2 against fruit fly in dietary tests” value is recorded as “F (Less than 50)” and the “FF 25: % mortality at 25 μg/cm2 against fruit fly in dietary tests” value is given as “F (Less than 50)”. The “% Control at ppm, against cotton aphid: 0.049” value in data set [5] (0.049 ppm, rundown assay) was “B (80-89)”. Moreover, in data set [5] (0.195 ppm, rundown assay), the “% Control at ppm, against cotton aphid: 0.195” value is on record as “A (90-100)”. In addition, in [5] (0.78 ppm, rundown assay), the “% Control at ppm, against cotton aphid: 0.78” value is given as “A (90-100)”. The “% Control at ppm, against cotton aphid: 3.12” value in data set [5] (3.12 ppm, rundown assay) was “A (90-100)”. In data set [5] (12.5 ppm, rundown assay), the “% Control at ppm, against cotton aphid: 12.5” value is recorded as “A (90-100)”. In addition, in data set [5] (50 ppm, rundown assay), the “% Control at ppm, against cotton aphid: 50” value was “A (90-100)”. In [5], the pest or weed control at 50 ppm was 90 to 100% and the pest or weed control at 200 ppm is 90 to 100%. In data set [6] (0.4-0.78 ppm, rundown assay), the “% Control at ppm, against sweet potato whitefly: 0.4-0.78” value is on record as “F (Less than 50)”. Moreover, the “% Control at ppm, against sweet potato whitefly: 2-3.13” value in data set [6] (2-3.13 ppm, rundown assay) is “F (Less than 50)”. Besides, the “% Control at ppm, against sweet potato whitefly: 10-12.5” value in data set [6] (10-12.5 ppm, rundown assay) is “A (90-100)”. Moreover, in data set [6] (50 ppm, rundown assay), the “% Control at ppm, against sweet potato whitefly: 50” value is given as “A (90-100)”. In addition, the pest or weed control at 200 ppm in data set [6] lay within 90 to 100%. Moreover, in data set [7], the “CEW 50: % mortality at 50 μg/cm2 against corn earworm in dietary tests” value is recorded as “G (Inactive)”. For the same molecule, in data set [8], the “BAW 50: % mortality at 50 μg/cm2 against beet armyworm in dietary tests” value is “G (Inactive)”. Further, the “% Control at ppm, against Colorado potato beetle: 0.78” value in [9] (0.78 ppm, rundown assay) is given as “F (Less than 50)”. In [9] (3.13 ppm, rundown assay), the “% Control at ppm, against Colorado potato beetle: 3.13” value is “F (Less than 50)”. In data set [9] (12.5 ppm, rundown assay), the “% Control at ppm, against Colorado potato beetle: 12.5” value is “A (90-100)”. The “CPB 50: % control at 50 ppm against Colorado potato beetle in foliar spray tests” value in data set [9] (50 ppm) is “A (90-100)”. In addition, the “% Control at ppm, against Colorado potato beetle: 50” value in [9] (50 ppm, rundown assay) was “A (90-100)”.

With `O=[N+]([O-])N=S1(=O)CCCC1Cc1ccc(Cl)nc1` (stereo not shown) [Compound 35], the pest or weed control at 26 ppm in [1] is 80 to 89%. Besides, in data set [3], the pest or weed control at 0.01 mg was less than 50%. In data set [4], the “FF SYM: % showing intoxicated symptoms at 25 μg/cm2 against fruit fly in dietary tests” value is listed as “D (60-69)” and the “FF 25: % mortality at 25 μg/cm2 against fruit fly in dietary tests” value was “F (Less than 50)”. Moreover, in data set [5], the pest or weed control at 50 ppm lay in the range of 90 to 100% and the pest or weed control at 200 ppm was 90 to 100%. Moreover, in [6], the pest or weed control at 200 ppm is 90 to 100%. The “CEW 50: % mortality at 50 μg/cm2 against corn earworm in dietary tests” value in data set [7] is “G (Inactive)”. Moreover, the “BAW 50: % mortality at 50 μg/cm2 against beet armyworm in dietary tests” value in data set [8] was “G (Inactive)”. In addition, the “CPB 50: % control at 50 ppm against Colorado potato beetle in foliar spray tests” value in data set [9] (50 ppm) is recorded as “B (80-89)”.
